In US10111885B2, “Compositions and therapeutic methods for the treatment of complement-associated diseases” (Resverlogix Corp., priority 2015, dated 2018):

What was measured:
Assay in all cases: SOMAscan protein quantitation in clinical samples, ASSURE trial
Type in all cases: in vivo, human
Details in all cases: 200 mg/day, week 26 vs. baseline
[1] = test system: Mannan-binding lectin serine protease 1
Method: (§1) In this example, plasma samples from human subjects treated with placebo or RVX000222 are analyzed by the SOMAscan™ assay (SomaLogic). The method can be used to determine the effect of compounds, including those in the present invention, on the abundance of proteins, including complement components, in clinical samples. […] Using the SOMAscan™ technology, each sample is analyzed for the relative presence and amount of 1,310 different proteins. The changes in values for each protein analyte are calculated versus the baseline measure, and statistically significant (p<0.05) values are reported (Table 10). Downregulation of expression of components of the complement cascade will result in reduced activity of the pathway and thus will constitute a positive result.

Complement factor H = test system: Complement factor H
Method: as §1

Complement factor I = test system: Complement factor I
Method: as §1

Complement component C9 = test system: Complement component C9
Method: as §1

C-reactive protein = test system: C-reactive protein
Method: as §1

[2] = test system: Complement C5b-C6 complex
Method: as §1

Complement C2 = test system: Complement C2
Method: as §1

Complement component C6 = test system: Complement component C6
Method: as §1

Complement factor B = test system: Complement factor B
Method: as §1

[3] = test system: Mannose-binding protein C
Method: as §1

Question: `COc1cc(OC)c2c(=O)[nH]c(-c3cc(C)c(OCCO)c(C)c3)nc2c1` [RVX000222, 2-(4-(2-hydroxyethoxy)-3,5-dimethylphenyl)-5,7-dimethoxyquinazolin-4(3H)-one] was tested. Which “Mannan-binding lectin serine protease 1 (MASP1) % change vs. baseline” value [1] did it give?
Answer: 4.8%

Question: What about the “Complement factor H (CFH) % change vs. baseline” value (Complement factor H) of the same compound?
Answer: −5.6%

Question: And the “Complement factor I (CFI) % change vs. baseline” value (Complement factor I)?
Answer: −6.4%

Question: And the “Complement component C9 (C9) % change vs. baseline” value (Complement component C9)?
Answer: −18.3%

Question: And the “C-reactive protein (CRP) % change vs. baseline” value (C-reactive protein)?
Answer: −43.6%

Question: And the “Complement C5b-C6 complex (C5 C6) % change vs. baseline” value [2]?
Answer: −12.0%

Question: And the “Complement C2 (C2) % change vs. baseline” value (Complement C2)?
Answer: −6.7%

Question: And the “Complement component C6 (C6) % change vs. baseline” value (Complement component C6)?
Answer: −14.3%

Question: And the “Complement factor B (CFB) % change vs. baseline” value (Complement factor B)?
Answer: −6.8%

Question: And the “Mannose-binding protein C (MBL2) % change vs. baseline” value [3]?
Answer: −14.6%
